According to patent EP0195841A1, “Quinolinecarboxylic acid derivatives and process for their preparation” (KYORIN PHARMACEUTICAL CO., LTD., priority 1985, dated 1986):
Converted amounts (≈) assume the structure as drawn.

Experiments:
Test in all cases: Antibacterial spectra, MIC by standard method of Japan Society of Chemotherapy
Format in all cases: cell-based
[1] = system: Salmonella enteritidis IID 604; details: Gram −, 10^6 cells/ml
[2] = system: Serratia marcescens IID 618; details: IID618, Gram −, 10^6 cells/ml, read-out: Minimum Inhibitory Concentration
[3] = system: Pseudomonas aeruginosa V-1; details: 10^6 cells/ml
[4] = system: Pseudomonas aeruginosa IFO 12689; details: 10^6 cells/ml
[5] = system: Enterobacter cloacae IID 977; details: 10^6 cells/ml
[6] = system: Klebsiella pneumoniae KY 6445; details: 10^6 cells/ml
[7] = system: S. pyogenes IID 689 (S-8); details: Streptococcus pyogenes, IID689, Gram +, 10^6 cells/ml, read-out: Minimum Inhibitory Concentration
[8] = system: S. aureus IID 670 (Terajima); details: Staphylococcus aureus, IID670, Gram +, 10^6 cells/ml, read-out: Minimum Inhibitory Concentration
P. morganii IID 602 = details: 10^6 cells/ml
S. pneumoniae 2054 = details: Streptococcus pneumoniae, Gram +, 10^6 cells/ml, read-out: Minimum Inhibitory Concentration
[9] = system: Bacteroides fragilis GM 7000; details: 10^6 cells/ml
[10] = system: Bacillus subtilis PCI 219; details: 10^6 cells/ml
[11] = system: Streptococcus pyogenes IID 692; details: 10^6 cells/ml
[12] = system: Bacteroides fragilis 0558; details: Gram −, 10^6 cells/ml
[13] = system: Bacteroides fragilis 25285; details: Gram −, 10^6 cells/ml
[14] = system: Staphylococcus aureus 209 P; details: Gram +, 10^6 cells/ml
[15] = system: Proteus vulgaris IFO 3167
[16] = system: Alcaligenes faecalis 0104002; details: Gram −, 10^6 cells/ml
E. coli NIHJ JC-2 = details: E. coli NIHJ JC-2, Gram −, 10^6 cells/ml
[17] = system: Yersinia enterocolitica IID 981; details: 10^6 cells/ml
P. mirabilis IID 994 = details: 10^6 cells/ml
E. coli ATCC 10536 = details: 10^6 cells/ml
S. epidermidis IID 866 = details: 10^6 cells/ml
[18] = system: Acinetobacter anitratus IID 876; details: Acinetobacter calcoaceticus, IID876, Gram −, 10^6 cells/ml, read-out: Minimum Inhibitory Concentration
[19] = system: Citrobacter freundii IID 976; details: 10^6 cells/ml
Shigella sonnei IID 969 = details: 10^6 cells/ml
Protocol: Experiment 1. Antibacterial spectra
Antibacterial activity was determined with the standard method recommended by Japan Society of Chemotherapy.

S. faecalis IID 682 = details: 10^6 cells/ml
[20] = read-out: Minimum Inhibitory Concentration

## CN1CCN(c2c(F)cc3c(=O)c(C(=O)O)cn(C4CC4)c3c2Cl)CC1 [Example 27, 8-Chloro-1-cyclopropyl-6-fluoro-1,4-dihydro-7-(4-methyl-l-piperazinyl)4-oxoquinoline-3-carboxylic acid]
[1]
  ratio of activity per that of Ciprofloxacin (bracketed number): 0.5
[1]; Salmonella enterica, read-out: Minimum Inhibitory Concentration
  MIC: 0.05 µg/mL (≈ 0.132 µM)
[2]
  MIC: 0.05 µg/mL (≈ 0.132 µM)
[3]; Gram −
  ratio of activity per that of Ciprofloxacin (bracketed number): 1
[3]; V1, Gram −, read-out: Minimum Inhibitory Concentration
  MIC: 0.2 µg/mL (≈ 0.527 µM)
[4]; Gram −
  ratio of activity per that of Ciprofloxacin (bracketed number): 0.25
[4]; IFO12689, Gram −, read-out: Minimum Inhibitory Concentration
  MIC: 1.56 µg/mL (≈ 4.11 µM)
[5]; Gram −
  ratio of activity per that of Ciprofloxacin (bracketed number): 1
[5]; IID977, Gram −, read-out: Minimum Inhibitory Concentration
  MIC: 0.05 µg/mL (≈ 0.132 µM)
[6]; Gram −
  ratio of activity per that of Ciprofloxacin (bracketed number): 0.5
[6]; KY6445, Gram −, read-out: Minimum Inhibitory Concentration
  MIC: 0.025 µg/mL (≈ 0.0658 µM)
[7]
  MIC: 0.2 µg/mL (≈ 0.527 µM)
[8]
  MIC: 0.1 µg/mL (≈ 0.263 µM)
P. morganii IID 602; Gram −
  ratio of activity per that of Ciprofloxacin (bracketed number): 1
P. morganii IID 602; Morganella morganii, IID602, Gram −, read-out: Minimum Inhibitory Concentration
  MIC: 0.05 µg/mL (≈ 0.132 µM)
S. pneumoniae 2054
  MIC: 0.39 µg/mL (≈ 1.03 µM)
[9]; GM7000, Gram −, read-out: Minimum Inhibitory Concentration
  MIC: 0.2 µg/mL (≈ 0.527 µM)
[9]; Gram −
  ratio of activity per that of Ciprofloxacin (bracketed number): 16
[10]; Gram +
  ratio of activity per that of Ciprofloxacin (bracketed number): 4
[10]; PCI219, Gram +, read-out: Minimum Inhibitory Concentration
  MIC: 0.0125 µg/mL (≈ 0.0329 µM)
[11]; Gram +
  ratio of activity per that of Ciprofloxacin (bracketed number): 4
[11]; IID692, Gram +, read-out: Minimum Inhibitory Concentration
  MIC: 0.2 µg/mL (≈ 0.527 µM)
[12]
  ratio of activity per that of Ciprofloxacin (bracketed number): 32
[12]; [20]
  MIC: 0.1 µg/mL (≈ 0.263 µM)
[13]
  ratio of activity per that of Ciprofloxacin (bracketed number): 32
[13]; [20]
  MIC: 0.1 µg/mL (≈ 0.263 µM)
[14]
  ratio of activity per that of Ciprofloxacin (bracketed number): 4
[14]; [20]
  MIC: 0.1 µg/mL (≈ 0.263 µM)
[15]; Proteus vulgaris IFO 3167, Gram −, 10^6 cells/ml
  ratio of activity per that of Ciprofloxacin (bracketed number): 0.5
[15]; Proteus vulgaris, IFO3167, read-out: Minimum Inhibitory Concentration
  MIC: 0.0125 µg/mL (≈ 0.0329 µM)
[16]
  ratio of activity per that of Ciprofloxacin (bracketed number): 1
[16]; [20]
  MIC: 0.39 µg/mL (≈ 1.03 µM)
E. coli NIHJ JC-2
  ratio of activity per that of Ciprofloxacin (bracketed number): 1
E. coli NIHJ JC-2; Escherichia coli, NIHJJC2, read-out: Minimum Inhibitory Concentration
  MIC: ≤ 0.006 µg/mL
[17]; Gram −
  ratio of activity per that of Ciprofloxacin (bracketed number): 1
[17]; IID981, Gram −, read-out: Minimum Inhibitory Concentration
  MIC: 0.05 µg/mL (≈ 0.132 µM)
P. mirabilis IID 994; Gram −
  ratio of activity per that of Ciprofloxacin (bracketed number): 0.5
P. mirabilis IID 994; Proteus mirabilis, IID994, Gram −, read-out: Minimum Inhibitory Concentration
  MIC: 0.025 µg/mL (≈ 0.0658 µM)
E. coli ATCC 10536; Escherichia coli, ATCC10536, Gram −, read-out: Minimum Inhibitory Concentration
  MIC: 0.0125 µg/mL (≈ 0.0329 µM)
E. coli ATCC 10536; Gram −
  ratio of activity per that of Ciprofloxacin (bracketed number): 1
S. epidermidis IID 866; Gram +
  ratio of activity per that of Ciprofloxacin (bracketed number): 4
S. epidermidis IID 866; Staphylococcus epidermidis, IID866, Gram +, read-out: Minimum Inhibitory Concentration
  MIC: 0.1 µg/mL (≈ 0.263 µM)
[18]
  MIC: 0.025 µg/mL (≈ 0.0658 µM)
[19]; Gram −
  ratio of activity per that of Ciprofloxacin (bracketed number): 0.25
[19]; IID976, Gram −, read-out: Minimum Inhibitory Concentration
  MIC: 0.025 µg/mL (≈ 0.0658 µM)
Shigella sonnei IID 969; Gram −
  ratio of activity per that of Ciprofloxacin (bracketed number): 0.5
Shigella sonnei IID 969; IID969, Gram −, read-out: Minimum Inhibitory Concentration
  MIC: 0.0125 µg/mL (≈ 0.0329 µM)
S. faecalis IID 682; Enterococcus faecalis, IID682, Gram +, read-out: Minimum Inhibitory Concentration
  MIC: 0.39 µg/mL (≈ 1.03 µM)
S. faecalis IID 682; Gram +
  ratio of activity per that of Ciprofloxacin (bracketed number): 2
